{
  "source": "patent US20250281607A1",
  "about": "“MEDICAMENT FOR TREATMENT AND/OR PREVENTION OF CANCER” (TORAY INDUSTRIES, INC., priority 2021, published 2025)",
  "key": {"[1]": {"tested_on": "prostate cancer cell line DU145", "assay": "THP-1-mediated phagocytic activity against DU145 (Example 2)", "assay_type": "cell-based, human", "conditions": "cells cultured 2 days with drug at 250 nM, then anti-CAPRIN-1 humanized antibody #1 5 μg/mL, FIG. 1", "method": "(§1) Specifically, in each combination test group (a trametinib combination test group, a fluorouracil combination test group and an irinotecan combination test group), the indicated drug used in combination was applied to human cancer cells, and then the cancer cells were cocultured with human monocytic cells (THP-1) in the presence of the anti-CAPRIN-1 antibody, and the antibody-mediated phagocytic activity against the cancer cells by THP-1 was evaluated. The human-derived cancer cells used were melanoma cell line A375 (used only in the trametinib combination test group), colon cancer cell line HCT116, prostate cancer cell line DU145 (used only in the trametinib combination test group), and lung cancer cell line A549 (used only in the trametinib combination test group). […]\n(§2) Each cancer cell line after the culture was dissociated with TrypLE Express (Thermo), and the cancer cells were stained by the addition of calcein-AM at a final concentration of 0.02 μg/mL and incubation at 37° C. for 30 minutes. […] Further, dead cells were stained with propidium iodide (PI) (final concentration: 0.1 μg/mL), followed by the measurement of fluorescence from the cells by flow cytometry. […] Thus, the phagocytic activity in this evaluation system was calculated as the ratio (%) of APC-positive/calcein-AM-positive cells to the whole calcein-AM-positive population."}, "[2]": {"conditions": "trametinib in itself (therefore also used as DMSO solvate); cited from earlier work"}, "[3]": {"tested_on": "colon cancer cell line HCT116", "assay": "THP-1-mediated phagocytic activity against HCT116 (Example 2)", "assay_type": "cell-based, human", "conditions": "cells cultured 2 days with drug at 50 nM, then anti-CAPRIN-1 humanized antibody #1 5 μg/mL, FIG. 1, 2", "method": "as §1, with “group). On a 6-well plate, the human-derived cancer cells were cultured for 2 days in the presence of trametinib for the trametinib combination test group, and cultured for 2 days in the presence of the each drug used in combination for the fluorouracil combination test group and the irinotecan combination test group. The concentration of the drug used in combination was set to a concentration that decreased the proliferation rate of the cancer cells by about half at the completion of culture.” for “group).”\nas §2"}, "[4]": {"tested_on": "lung cancer cell line A549", "assay": "THP-1-mediated phagocytic activity against A549 (Example 2)", "assay_type": "cell-based, human", "conditions": "cells cultured 2 days with drug at 250 nM, then anti-CAPRIN-1 humanized antibody #1 5 μg/mL, FIG. 1", "method": "as §1, §2"}, "melanoma cell line A375": {"tested_on": "melanoma cell line A375", "assay": "THP-1-mediated phagocytic activity against A375 (Example 2)", "assay_type": "cell-based, human", "conditions": "cells cultured 2 days with drug at 50 nM, then anti-CAPRIN-1 humanized antibody #1 5 μg/mL, FIG. 1", "method": "as §1, §2"}},
  "data": [
    {"compound": "CC(=O)Nc1cccc(-n2c(=O)n(C3CC3)c(=O)c3c(Nc4ccc(I)cc4F)n(C)c(=O)c(C)c32)c1", "note": "[trametinib, N-[3-[3-cyclopropyl-5-(2-fluoro-4-iodoanilino)-6,8-dimethyl-2,4,7-trioxopyrido[4,3-d]pyrimidin-1-yl]phenyl]acetamide]", "values": [
      {"measurement": "phagocytic activity against cancer cells", "setting": "[1]", "result": 9, "unit": "%"},
      {"measurement": "solubility", "setting": "[2]", "result": "poorly soluble"},
      {"measurement": "phagocytic activity against cancer cells", "setting": "[3]", "result": 45, "unit": "%"},
      {"measurement": "phagocytic activity against cancer cells", "setting": "[4]", "result": 7, "unit": "%"},
      {"measurement": "phagocytic activity against cancer cells", "setting": "melanoma cell line A375", "result": 49, "unit": "%"}
    ]}
  ]
}
